Assay results taken from article PMC6145453 (ACS infectious diseases, 2018).
Where “and” joins values, the source holds several entries; their conditions need not be identical. Equal values may be shown once. Entries after “also recorded” stand apart in the source; their conditions may differ.

Legend:
[1] = test system: influenza A/WSN/33 virus; experiment: microbe, parasite or virus in culture; type: cell-based, influenza A virus (H1N1); conditions: for IC50: Influenza A virus, H1N1|WSN, A549, 24 h
[2] = test system: influenza A/WSN/33 virus; experiment: microbe, parasite or virus in culture; type: cell-based, influenza A virus (H1N1); conditions: MDCK
[3] = test system: A/California/04/2009 (H1N1); experiment: microbe, parasite or virus in culture; type: cell-based, influenza A virus; conditions: for IC50: Influenza A virus, H1N1, A549
[4] = test system: A/Puerto Rico/8/1934 (H1N1); experiment: microbe, parasite or virus in culture; type: cell-based, influenza A virus; conditions: for IC50: Influenza A virus, H1N1, A549, 24 h
[5] = test system: A/Brisbane/59/2007-S (oseltamivir sensitive); experiment: microbe, parasite or virus in culture; type: cell-based; conditions: Influenza A virus, H1N1, A549, 24 h
[6] = test system: A/Panama/2007/1999 (H3N2); experiment: microbe, parasite or virus in culture; type: cell-based, influenza A virus; conditions: for IC50: Influenza A virus, H3N2, A549
[7] = test system: A/Wyoming/03/2003 (H3N2); experiment: microbe, parasite or virus in culture; type: cell-based; conditions: Influenza A virus, H3N2, A549, 24 h
[8] = test system: A/Vietnam/1203/2004 (H5N1); experiment: microbe, parasite or virus in culture; type: cell-based, influenza A virus; conditions: for IC50: Influenza A virus, H5N1, A549
[9] = test system: B/Yamagata/16/1988; experiment: microbe, parasite or virus in culture; type: cell-based; conditions: Influenza B virus, MDCK
[10] = test system: B/Brisbane/60/2008; experiment: microbe, parasite or virus in culture; type: cell-based; conditions: Influenza B virus, MDCK, 24 h
[11] = test system: A/Puerto Rico/8/1934 (H1N1) virus expressing GFP; experiment: microbe, parasite or virus in culture; type: cell-based, influenza A virus; conditions: for IC50: Influenza A virus, H1N1, read-out: PRS IC50
[12] = test system: A/Vietnam/1203/2004 (H5N1-Halo) GFP virus; experiment: microbe, parasite or virus in culture; type: cell-based, influenza A virus; conditions: for IC50: Influenza A virus, H5N1, read-out: H5N1 IC50
[13] = test system: influenza A/WSN/33 virus; type: cell-based
[14] = test system: purified recombinant wild-type WSN NP protein; type: biochemical, influenza A/WSN/33 virus
[15] = test system: NP (A/WSN/33 infected A549 cells); type: cell-based, influenza A virus
[16] = test system: NP (A/WSN/33 infected A549 cells); type: cell-based, influenza A virus; remark: listed apart in the source
[17] = test system: viral mRNA, vRNA and protein expression, A/WSN/33; type: cell-based, influenza A virus
[18] = test system: viral mRNA, vRNA and protein expression, rY40F-WSN virus; type: cell-based, influenza A virus
[19] = test system: A549 cells
[20] = test system: PR8-GFP virus; type: cell-based, influenza A virus
[21] = test system: vesicular stomatitis virus (VSV); type: cell-based
[22] = in vitro; conditions: human
[23] = in vitro; conditions: dog

Row | Structure (SMILES) | IC50 [1] [µM] | IC50 [3] [µM] | IC50 [4] [µM] | IC50 [5] [µM] | IC50 [6] [µM] | IC50 [7] [µM] | IC50 [8] [µM] | IC50 [9] [µM] | IC50 [10] [µM] | IC50 [11] [µM] | IC50 [12] [µM] | effect on NP oligomer ladder / low molecular weight band [14] | effect on low molecular weight NP band [14] | effect on NP oligomer size [15] | effect on low molecular weight NP pool [15] | NP localization [16] | time of appearance of NP aggregates [16] | inhibition of transcription and replication of rY40F-WSN virus [18] | other results
1 | CC(C)(C)c1ccc(C(=O)Nc2ccc(NC(=O)c3ccc(C(C)(C)C)cc3)cc2)cc1 [S119, N,N′-(1,4-Phenylene)bis(4-(tert-butyl)benzamide)] | 0.02 | 27.4 | > 50 | > 50 | > 50 | > 50 | > 50 | > 50 | > 50 | > 50 | > 50 | low molecular weight band is completely lost | low molecular weight NP band is lost | shift to smaller oligomers | distinct loss | NP translocation to the nucleus was delayed | not until the 24 h post-infection time point | completely resistant | reduction in WSN viral titers [1]: 4 log; IC50 [2]: 0.06 µM; reduction in infectious titer [3]: 77%; activity against strain [4]: ineffective; activity against strain [6]: ineffective; activity against strain [8]: ineffective; antiviral activity on screened strain [11]: no detectable antiviral activity; antiviral activity on screened strain [12]: no detectable antiviral activity; effect on viral titer when added at 6 h after infection [13]: 1 log; virus inhibition when added 4 h after infection [13]: significant virus inhibition; virus inhibition when added before infection and up to 2 h after infection [13]: maximally inhibit; NP protein levels [17]: moderately reduced; NS1 protein expression [17]: unaffected; mRNA expression from the NP segment [17]: severely reduced; mRNA expression from the NS segment [17]: slightly reduced; mRNA expression from the PB2 segment [17]: reduced to undetectable levels; vRNA from any segment [17]: could not be detected; Cytotoxicity ([19]; A549 cells, concentrations as high as 500 μM): very little toxicity
2 | CC(C)(C)c1ccc(NC(=O)c2ccc(C(C)(C)C)cc2)cc1 [S119-2, 4-(tert-butyl)-N-(4-(tert-butyl)phenyl)benzamide] | – | – | – | – | – | – | – | – | – | 13.9 | 44.5 | – | – | – | – | – | – | – | –
3 | CC(C)(C)c1ccc(C(=O)Nc2ccc(Oc3ccccc3)cc2)cc1 [S119-3, 4-(tert-butyl)-N-(4-phenoxyphenyl)benzamide] | – | – | – | – | – | – | – | – | – | 11.4 | 17.4 | – | – | – | – | – | – | – | –
4 | CC(C)(C)c1ccc(C(=O)Nc2cccc(NC(=O)c3ccc(C(C)(C)C)cc3)c2)cc1 [S119-6, N,N′-(1,3-phenylene)bis(4-(tert-butyl)benzamide)] | – | – | – | – | – | – | – | – | – | > 50 | > 50 | – | – | – | – | – | – | – | –
5 | CC(C)(C)c1ccc(C(=O)Nc2ccc(Nc3ccccc3)cc2)cc1 [S119-8, 4-(tert-butyl)-N-(4-(phenylamino)-phenyl)benzamide] | 1.43 | 5.32 | 6.05 | 6.68 | 6.43 | 11.5 | 7.94 | 2.08 | 15.2 | 6.05 | 8.42 | – | – | – | – | – | – | – | combination index [20]: 0.79 and 0.57; type of interaction [20]: synergistic; also recorded: additive to slightly synergistic; inhibition of VSV [21]: did not inhibit; also recorded: does not inhibit; CC50 ([19]; human): 40.7 µM; CC50 ([22]; CC50): > 50 µM; CC50 ([22]; CC50 (50% cytotoxic concentration)): 66.1 µM; CC50 [23]: > 50 µM
6 | Cc1onc(-c2ccccc2)c1C(=O)N1CCN(c2ccc([N+](=O)[O-])cc2Cl)CC1 [nucleozin, reference compound] | – | – | – | – | – | – | – | – | – | – | – | oligomer ladder becomes a smear | low molecular weight NP band is lost | shift to smaller oligomers | distinct loss | NP remains exclusively in the cytoplasm | visible aggregates by 4 h post-infection | efficient inhibition | mRNA, vRNA and viral protein expression from PB2, NP and NS segments [17]: complete loss
